The assay deals with CRC cell lines. In words: Drug response in cell lines (CellTiter-Glo proliferation, 72 h). The settings on record: PHA-665752 125 nM, relative to vehicle-treated cells (FIG. 3E). The assay is classed as cell-based, human. How it is done:
Colon cancer cell lines were grown in DMEM (Gibco, USA) plus 10% FBS (Invitrogen, USA) without antibiotics/antimycotics. All the cell lines were confirmed to be negative for mycoplamsa by PCR (VenorGeM kit, Sigma, USA) prior to use and were tested monthly.
Proliferation was monitored using CellTiter-Glo® assay kit according to the manufacturer's instruction (Promega, Dubendorf, Switzerland) on day 3 (72 h).
(In general: ATP-based viability assays read luminescence as a measure of living cells.)

Regarding `Cc1[nH]c(/C=C2\C(=O)Nc3ccc(S(=O)(=O)Cc4c(Cl)cccc4Cl)cc32)c(C)c1C(=O)N1CCC[C@@H]1CN1CCCC1` [cMet inhibitor, PHA-665752], the “sensitivity to cMet inhibition, CR-TA versus CS-TA cell lines” value is on record as “CR-TA cell lines were much more sensitive to cMet inhibition than CS-TA cell lines”.

These data come from patent publication US20150354009A1, “COLORECTAL CANCER CLASSIFICATION WITH DIFFERENTIAL PROGNOSIS AND PERSONALIZED THERAPEUTIC RESPONSES” (ECOLE POLYTECHNIQUE FEDERALE DE LAUSANNE (EPFL), priority 2012, published 2015).
